Assays:
Format in all cases: in vivo, Wistar male rats
[1] = test system: epilepsy rats (PTZ induced); experiment: Passive avoidance test in shuttle box (trial E); conditions: after retention session of 24 hours, p<0.05 compared to group A0
Procedure: (§1) Wistar male rats (8 week-old) purchased from BioLASCO Taiwan Co., Ltd were used. The rats were housed in an animal room with constant temperature of 21-24° C., where was kept on a 12-hours light and 12-hours dark cycle. The rats were housed and kept on free diet and water.
(§2) 3 days before the trials, motor functions of the rats were tested by the rotarod test. On the 1st, 3rd, 5th, 7th, 9th, 11th and 13th days, pentylenetetrazol (PTZ, 35 mg/kg) was IP injected to the rats to induce epilepsy rats of groups A1-A5. On the 21st day, after administration of PTZ, seizure intensity of the rats was measured.
(§3) Referring to TABLE 1, on the 7th, 8th, 9th, 10th, 11th, 12th and 13th days, clavulanic acid and/or valproic acid was IP injected to the epilepsy rats of groups A2-A5. Saline (1 mL/kg/day) was IP injected to the normal rats of group A0, as well as the epilepsy rats of group A1.
On the 14th day, the motor function of the rats of groups A0-A5 was tested by rotarod test. […] The number of BrdU-positive cells in hippocampal dentate gyrus was calculated. […]
After the retention session for 24 hours, the rat R under the test was placed in the light chamber C1, and the guillotine door D was opened, as shown in FIG. 8b. The latency to entrance into the dark chamber C2 was recorded. […]

[2] = test system: epilepsy rats (PTZ induced); experiment: Seizure intensity by Racine score in PTZ-induced epilepsy rats (trial B); conditions: for seizure intensity (Racine score): 9th, 11th and 13th days
Procedure: Wistar male rats (8 week-old) purchased from BioLASCO Taiwan Co., Ltd were used. The rats were housed in an animal room with constant temperature of 21-24° C., where was kept on a 12-hours light and 12-hours dark cycle. The rats were housed and kept on free diet and water. 3 days before the trials, motor functions of the rats were tested by the rotarod test. On the 1st, 3rd, 5th, 7th, 9th, 11th and 13th days, pentylenetetrazol (PTZ, 35 mg/kg) was IP injected to the rats to induce epilepsy rats of groups A1-A5. On the 21st day, after administration of PTZ, seizure intensity of the rats was measured. Referring to TABLE 1, on the 7th, 8th, 9th, 10th, 11th, 12th and 13th days, clavulanic acid and/or valproic acid was IP injected to the epilepsy rats of groups A2-A5. Saline (1 mL/kg/day) was IP injected to the normal rats of group A0, as well as the epilepsy rats of group A1. On the 1st, 3rd, 5th, 7th, 9th, 11th, 13th and 21st days, the seizure intensity of the rats of groups A0-A5 was measured by Racine score. The seizure intensity was scored according to Racine's scale as follows: 0=normal, nonepileptic activity, 1=mouth and facial movements, hyperactivity, grooming, sniffing, scratching, wet dog shakes, 2=head nodding, staring, tremor, 3=forelimb clonus, forelimb extension, 4=rearing, salivating, tonic clonic activity and 5=falling, status epilepticus.

[3] = test system: epilepsy rats (PTZ induced); experiment: BrdU staining of hippocampal dentate gyrus (trial F); conditions: 23rd day
Procedure: as §1, §2, §3
On the 14th day, the motor function of the rats of groups A0-A5 was tested by rotarod test. On the 15th, 16th and 17th days, the cognitive impairment on object recognition ability of the rats of groups A0-A5 was tested by object recognition test. On the 18th, 19th and 20th days, the cognitive impairment on memory of the rats of groups A0-A5 was tested by passive avoidance test. Moreover, on the 22nd day, BrdU (5′-bromo-2′-deoxyuridine) was IP injected to the rats of groups A0-A5 to label the proliferating cells. On the 23rd day, the rats of groups A0-A5 were sacrificed and the coronal brain sections were collected. The sections with hippocampal dentate gyrus were used for BrdU staining. The number of BrdU-positive cells in hippocampal dentate gyrus was calculated.
On the 22nd day, BrdU was IP injected to the rats to label the proliferating cells. On the 23rd day, the rats of groups A0-A5 were sacrificed and the coronal sections of the brain were collected. The sections with hippocampal dentate gyrus were used for BrdU staining.

[4] = test system: epilepsy rats (PTZ induced); experiment: Rotarod test of motor function (trial C); conditions: 14th day, 25 rpm for 3 minutes
Procedure: Wistar male rats (8 week-old) purchased from BioLASCO Taiwan Co., Ltd were used. The rats were housed in an animal room with constant temperature of 21-24° C., where was kept on a 12-hours light and 12-hours dark cycle. The rats were housed and kept on free diet and water. 3 days before the trials, motor functions of the rats were tested by the rotarod test. On the 1st, 3rd, 5th, 7th, 9th, 11th and 13th days, pentylenetetrazol (PTZ, 35 mg/kg) was IP injected to the rats to induce epilepsy rats of groups A1-A5. On the 21st day, after administration of PTZ, seizure intensity of the rats was measured. Referring to TABLE 1, on the 7th, 8th, 9th, 10th, 11th, 12th and 13th days, clavulanic acid and/or valproic acid was IP injected to the epilepsy rats of groups A2-A5. Saline (1 mL/kg/day) was IP injected to the normal rats of group A0, as well as the epilepsy rats of group A1. On the 14th day, the motor function of the rats of groups A0-A5 was tested by rotarod test. On the 15th, 16th and 17th days, the cognitive impairment on object recognition ability of the rats of groups A0-A5 was tested by object recognition test. On the 18th, 19th and 20th days, the cognitive impairment on memory of the rats of groups A0-A5 was tested by passive avoidance test. Moreover, on the 22nd day, BrdU (5′-bromo-2′-deoxyuridine) was IP injected to the rats of groups A0-A5 to label the proliferating cells. On the 23rd day, the rats of groups A0-A5 were sacrificed and the coronal brain sections were collected. The sections with hippocampal dentate gyrus were used for BrdU staining. The number of BrdU-positive cells in hippocampal dentate gyrus was calculated. Next, motor function of the rats of groups A0-A5 was tested by rotarod test. Specifically, in the training session, the normal rat that had not yet been induced as epilepsy rat by PTZ was used as the rat R under the test. […] 3 trials were performed with a cutoff of 5 minutes. On the 14th day, the rats of groups A0-A5 were used as the rats R under the test. […]

[5] = test system: epilepsy rats (PTZ induced); experiment: Object recognition test (trial D); conditions: 17th day
Procedure: as §1, §2, §3
On the 14th day, the motor function of the rats of groups A0-A5 was tested by rotarod test. On the 15th, 16th and 17th days, the cognitive impairment on object recognition ability of the rats of groups A0-A5 was tested by object recognition test. On the 18th, 19th and 20th days, the cognitive impairment on memory of the rats of groups A0-A5 was tested by passive avoidance test. […] The number of BrdU-positive cells in hippocampal dentate gyrus was calculated. […]
On the 17th day, during the test session, the rat R under the test was placed in the open box, shown as FIG. 6a, and the time spent exploring the object O1 (TO1) and the total time spent exploring the objects O1, O2 & O3 (TO1+O2+O3) were recorded, respectively. The percentage of the exploration time spent on the object O1 was calculated as (TO1/TO1+O2+O3)*100%. […] The time spent exploring the novel object O4 (TO4) and the total time spent exploring the objects O2 & O3 and the novel object O4 (TO2+O3+O4) were respectively recorded, and the percentage of the exploration time spent on the novel object O4 was calculated as […].

[6] = group A4: valproic acid 50 mg/kg/day IP

With `O=C(O)[C@H]1/C(=C/CO)O[C@@H]2CC(=O)N21` [clavulanic acid] the “latency to entrance into the dark chamber C2” value ([1]; group A2: clavulanic acid 1 mg/kg/day IP) was “also decreases”, the “seizure intensity (Racine score)” value ([2]; group A2: clavulanic acid 1 mg/kg/day IP days 7-13) was 3-4 and the “seizure intensity (Racine score) after drug holiday” value ([2]; group A3: clavulanic acid 10 mg/kg/day IP days 7-13, not treated days 14-20, 21st day, compared to group A1 (saline)) was “still significantly lower”. The “seizure intensity (Racine score)” value ([2]; group A3: clavulanic acid 10 mg/kg/day IP days 7-13) was “decreases”, the “number of BrdU-positive cells in hippocampal dentate gyrus” value (“number of BrdU-positive cells” below) ([3]; group A2: clavulanic acid 1 mg/kg/day IP, no difference compared to group A0) was “can recover the number of BrdU-positive cells to normal” and the “number of BrdU-positive cells” value ([3]; group A3: clavulanic acid 10 mg/kg/day IP, no difference compared to group A0) was “can recover the number of BrdU-positive cells to normal”. The “riding time on rotarod” value ([4]; group A2: clavulanic acid 1 mg/kg/day IP, no difference between group A0) was “significantly increase the riding time”, the “riding time on rotarod” value ([4]; group A3: clavulanic acid 10 mg/kg/day IP, p<0.05 compared to group A1) was “significantly increase the riding time” and the “percentage of time exploring novel object O4 versus object O1” value (shortened to “percentage”) ([5]; group A2: clavulanic acid 1 mg/kg/day IP, p<0.01) was “can recognize the novel object O4”. The “percentage” value ([5]; group A3: clavulanic acid 10 mg/kg/day IP, p<0.05) was “can recognize the novel object O4”.
`CCCC(CCC)C(=O)O` [valproic acid] was tested, and the “latency to entrance into the dark chamber C2” value [1, 6] was “cannot improve the cognitive impairment on memory”, the “seizure intensity (Racine score)” value ([2]; group A4: valproic acid 50 mg/kg/day IP days 7-13) was “did not decrease” and the “number of BrdU-positive cells” value ([3]; group A4: valproic acid 50 mg/kg/day IP, p<0.05 compared to A0) was “cannot improve the defect on neurogenesis”. The “riding time on rotarod” value ([4]; group A4: valproic acid 50 mg/kg/day IP, p<0.001 compared to group A0) was “cannot improve the motor coordination and balance problems” and the “percentage” value [5, 6] was “cannot improve the cognitive decline on recognition ability”.

Source: US20210154173A1, “PHARMACEUTICAL COMPOSITION INCLUDING CLAVULANIC ACID AND VALPROIC ACID, METHOD FOR TREATMENT OF EPILEPSY SEIZURE, AND METHOD FOR TREATMENT OF EPILEPSY-ASSOCIATED MOTOR SYMPTOM AND COGNITIVE IMPAIRMENT” (Arthur Wisdom Technology Consultants Ltd., priority 2019, published 2021)
